pIC50, pKi: −log10 of the molar value. Where two headings read alike, the source gives them in different places.
Legend:
p110α (PI3Kα) = p110α (PI3Kα) (Homo sapiens, UniProt P42336); test: LanthaScreen determination of kinetic constants (kinact, Ki) for p110α; assay type: binding; settings: for pKi: dissociation constant of the first reversible binding, mean of 3; for kinact: read-out: kinact PI3Kα;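 on all read-outs here: covalent inhibition constants for p110α come from LanthaScreen data, fitted globally by numerical integration in KinTek Global Kinetic Explorer software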
p110α (PI3Kα), sequence (P42336 whole entry): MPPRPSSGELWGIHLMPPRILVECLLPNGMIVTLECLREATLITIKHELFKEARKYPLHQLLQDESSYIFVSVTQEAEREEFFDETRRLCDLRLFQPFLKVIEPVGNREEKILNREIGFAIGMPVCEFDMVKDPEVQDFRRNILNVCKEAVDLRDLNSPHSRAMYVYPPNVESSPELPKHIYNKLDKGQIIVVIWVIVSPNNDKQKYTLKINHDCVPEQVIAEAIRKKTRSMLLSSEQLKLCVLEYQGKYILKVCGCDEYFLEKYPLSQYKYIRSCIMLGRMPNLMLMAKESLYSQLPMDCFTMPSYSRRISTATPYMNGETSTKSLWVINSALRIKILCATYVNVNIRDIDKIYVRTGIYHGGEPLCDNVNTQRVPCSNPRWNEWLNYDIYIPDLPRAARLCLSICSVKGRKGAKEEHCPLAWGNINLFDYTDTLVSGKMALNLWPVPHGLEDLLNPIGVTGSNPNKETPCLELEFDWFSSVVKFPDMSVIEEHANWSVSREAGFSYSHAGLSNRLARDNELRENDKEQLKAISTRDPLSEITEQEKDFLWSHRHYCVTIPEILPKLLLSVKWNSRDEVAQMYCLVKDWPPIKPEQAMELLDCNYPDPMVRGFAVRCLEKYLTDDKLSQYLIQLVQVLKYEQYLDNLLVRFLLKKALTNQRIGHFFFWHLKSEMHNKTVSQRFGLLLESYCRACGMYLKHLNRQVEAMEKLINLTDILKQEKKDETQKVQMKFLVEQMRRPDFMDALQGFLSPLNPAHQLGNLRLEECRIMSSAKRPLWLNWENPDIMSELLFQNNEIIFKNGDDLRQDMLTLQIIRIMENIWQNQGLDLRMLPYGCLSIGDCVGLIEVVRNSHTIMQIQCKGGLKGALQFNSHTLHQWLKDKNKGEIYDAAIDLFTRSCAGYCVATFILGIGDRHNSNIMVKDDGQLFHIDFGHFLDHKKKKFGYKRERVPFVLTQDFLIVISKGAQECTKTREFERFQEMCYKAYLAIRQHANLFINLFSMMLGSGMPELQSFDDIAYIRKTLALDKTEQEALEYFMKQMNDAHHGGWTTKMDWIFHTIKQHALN
p110α (PI3Kα), sequence (P27986 whole entry partner): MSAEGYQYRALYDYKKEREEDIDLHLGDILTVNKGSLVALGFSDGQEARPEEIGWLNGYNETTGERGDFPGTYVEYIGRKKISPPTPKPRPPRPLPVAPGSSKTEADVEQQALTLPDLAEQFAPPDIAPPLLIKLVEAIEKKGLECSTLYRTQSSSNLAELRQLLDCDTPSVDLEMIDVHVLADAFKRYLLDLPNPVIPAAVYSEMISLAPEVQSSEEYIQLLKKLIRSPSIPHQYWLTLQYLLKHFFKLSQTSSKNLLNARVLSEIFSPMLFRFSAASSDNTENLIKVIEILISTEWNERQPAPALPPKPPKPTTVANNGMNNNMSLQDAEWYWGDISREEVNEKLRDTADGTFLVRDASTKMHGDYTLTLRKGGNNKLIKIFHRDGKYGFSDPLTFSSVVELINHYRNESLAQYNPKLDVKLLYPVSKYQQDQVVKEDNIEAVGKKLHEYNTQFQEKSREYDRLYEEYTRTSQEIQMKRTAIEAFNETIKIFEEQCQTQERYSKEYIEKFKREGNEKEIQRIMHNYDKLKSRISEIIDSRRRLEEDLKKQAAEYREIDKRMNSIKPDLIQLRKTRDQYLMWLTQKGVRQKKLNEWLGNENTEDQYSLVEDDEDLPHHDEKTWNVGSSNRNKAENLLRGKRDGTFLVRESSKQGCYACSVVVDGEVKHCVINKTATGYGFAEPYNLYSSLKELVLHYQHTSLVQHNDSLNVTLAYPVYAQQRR

[1] = test system: pSer473 of PKB/Akt in SKOV3 cells; test: In-Cell Western cellular PI3K signaling, pSer473 of PKB/Akt in SKOV3 cells; assay type: cell-based; settings: Homo sapiens
Experimental: Protein phosphorylation was detected as follows: pSer473 of PKB/Akt with rabbit polyclonal antibody from Cell Signaling Technology (CST) (#4058) by In-Cell Western assays, where 1.2×10^4 SKOV3 cells/well in 96-well plates were plated (Cell Carrier, PerkinElmer) for 24 hours (37° C., 5% CO2), as described in Ref.^21.

[2] = mean of 3 independent measurements, global fitting with KinTek
[3] = SK-OV-3, SKOV3 cells, mean of 2 or 3 independent measurements, read-out: IC50 pPKB (S473) SKOV3
[4] = SK-OV-3, read-out: IC50 pPKB (S473) SKOV3

Structure (SMILES)	kinact/KI (p110α (PI3Kα); PI3Kα, read-out: kinact/Ki) [M⁻¹ s⁻¹]	pKi (p110α (PI3Kα))	kinact (p110α (PI3Kα); [2]) [s⁻¹]	pIC50 [1, 3]	kinact/KI (p110α (PI3Kα)) [M⁻¹ s⁻¹]	kinact (p110α (PI3Kα)) [s⁻¹]	pIC50 [1, 4]
N#C/C(=C/C1CC1)C(=O)N1CC[C@H](COCC(=O)N2CCN(c3nc(-c4cnc(N)nc4C(F)F)nc(N4CCOCC4)n3)CC2)C1 [Compound 9, (S,Z)-2-(3-((2-(4-(4-(2-amino-4-(difluoromethyl)pyrimidin-5-yl)-6-morpholino-1,3,5-triazin-2-yl)piperazin-1-yl)-2-oxoethoxy)methyl)pyrrolidine-1-carbonyl)-3-cyclopropylacrylonitrile]	9.43e+06	8.95	0.0105	7.84	–	–	–
C=CC(=O)N1CC[C@H](COCC(=O)N2CCN(c3nc(-c4cnc(N)nc4C(F)F)nc(N4CCOC[C@@H]4C)n3)CC2)C1 [Compound 3, 1-((S)-3-((2-(4-(4-(2-amino-4-(difluoromethyl)pyrimidin-5-yl)-6-((S)-3-methylmorpholino)-1,3,5-triazin-2-yl)piperazin-1-yl)-2-oxoethoxy)methyl)pyrrolidin-1-yl)prop-2-en-1-one]	502000	–	0.000432	7.64	–	–	–
Nc1ncc(-c2nc(N3CCOCC3)nc(N3CCN(C(=O)COC[C@@H]4CCCN(C(=O)/C=C/CF)C4)CC3)n2)c(C(F)F)n1 [Compound 13, (R,E)-1-(3-((2-(4-(4-(2-amino-4-(difluoromethyl)pyrimidin-5-yl)-6-morpholino-1,3,5-triazin-2-yl)piperazin-1-yl)-2-oxoethoxy)methyl)piperidin-1-yl)-4-fluorobut-2-en-1-one]	–	–	–	7.74	–	–	–
C=CC(=O)N1CCC[C@@H](COCC(=O)N2CCN(c3nc(-c4cnc(N)nc4C(F)F)nc(N4CCOC[C@@H]4C)n3)CC2)C1 [Compound 1, 1-((R)-3-((2-(4-(4-(2-amino-4-(difluoromethyl)pyrimidin-5-yl)-6-((S)-3-methylmorpholino)-1,3,5-triazin-2-yl)piperazin-1-yl)-2-oxoethoxy)methyl)piperidin-1-yl)prop-2-en-1-one]	–	8.57	–	–	156000	0.000419	7.60
C=CC(=O)N1CCC[C@H](COCC(=O)N2CCN(c3nc(-c4cnc(N)nc4C(F)F)nc(N4CCOC[C@@H]4C)n3)CC2)C1 [Compound 2, 1-((S)-3-((2-(4-(4-(2-amino-4-(difluoromethyl)pyrimidin-5-yl)-6-((S)-3-methylmorpholino)-1,3,5-triazin-2-yl)piperazin-1-yl)-2-oxoethoxy)methyl)piperidin-1-yl)prop-2-en-1-one]	94300	8.56	0.000262	7.54	–	–	–
C=CC(=O)N1CCC[C@@H](OCCC(=O)N2CCN(c3nc(-c4cnc(N)nc4C(F)F)nc(N4CCOC[C@@H]4C)n3)CC2)C1 [Compound 5, 1-((R)-3-(3-(4-(4-(2-amino-4-(difluoromethyl)pyrimidin-5-yl)-6-((S)-3-methylmorpholino)-1,3,5-triazin-2-yl)piperazin-1-yl)-3-oxopropoxy)piperidin-1-yl)prop-2-en-1-one]	–	8.05	–	–	595000	0.0052	7.77
N#C/C(=C/C1CC1)C(=O)N1CCC[C@@H](COCC(=O)N2CCN(c3nc(-c4cnc(N)nc4C(F)F)nc(N4CCOCC4)n3)CC2)C1 [Compound 8, (R,Z)-2-(3-((2-(4-(4-(2-amino-4-(difluoromethyl)pyrimidin-5-yl)-6-morpholino-1,3,5-triazin-2-yl)piperazin-1-yl)-2-oxoethoxy)methyl)piperidine-1-carbonyl)-3-cyclopropylacrylonitrile]	–	8.56	–	–	3.96e+06	0.011	7.94
C=C(F)C(=O)N1CCC[C@@H](COCC(=O)N2CCN(c3nc(-c4cnc(N)nc4C(F)F)nc(N4CCOCC4)n3)CC2)C1 [Compound 11, (R)-1-(3-((2-(4-(4-(2-amino-4-(difluoromethyl)pyrimidin-5-yl)-6-morpholino-1,3,5-triazin-2-yl)piperazin-1-yl)-2-oxoethoxy)methyl)piperidin-1-yl)-2-fluoroprop-2-en-1-one]	–	8.73	–	7.70	–	–	–
C=C(F)C(=O)N1CCC[C@H](COCC(=O)N2CCN(c3nc(-c4cnc(N)nc4C(F)F)nc(N4CCOCC4)n3)CC2)C1 [Compound 12, (S)-1-(3-((2-(4-(4-(2-amino-4-(difluoromethyl)pyrimidin-5-yl)-6-morpholino-1,3,5-triazin-2-yl)piperazin-1-yl)-2-oxoethoxy)methyl)piperidin-1-yl)-2-fluoroprop-2-en-1-one]	–	–	–	7.81	–	–	–
N#C/C(=C/C1CC1)C(=O)N1CC[C@@H](COCC(=O)N2CCN(c3nc(-c4cnc(N)nc4C(F)F)nc(N4CCOCC4)n3)CC2)C1 [Compound 10, (R,Z)-2-(3-((2-(4-(4-(2-amino-4-(difluoromethyl)pyrimidin-5-yl)-6-morpholino-1,3,5-triazin-2-yl)piperazin-1-yl)-2-oxoethoxy)methyl)pyrrolidine-1-carbonyl)-3-cyclopropylacrylonitrile]	1.02e+07	8.96	0.0111	7.64	–	–	–
C=CC(=O)N1CC[C@@H](COCC(=O)N2CCN(c3nc(-c4cnc(N)nc4C(F)F)nc(N4CCOC[C@@H]4C)n3)CC2)C1 [Compound 4, 1-((R)-3-((2-(4-(4-(2-amino-4-(difluoromethyl)pyrimidin-5-yl)-6-((S)-3-methylmorpholino)-1,3,5-triazin-2-yl)piperazin-1-yl)-2-oxoethoxy)methyl)pyrrolidin-1-yl)prop-2-en-1-one]	325000	7.93	0.00383	7.45	–	–	–

More lines, main results first:

kinact/KI (p110α (PI3Kα); PI3Kα, read-out: kinact/Ki) [M⁻¹ s⁻¹]	pKi (p110α (PI3Kα))	kinact (p110α (PI3Kα); [2]) [s⁻¹]	pIC50 [1, 3]	Structure (SMILES)	kinact/KI (p110α (PI3Kα)) [M⁻¹ s⁻¹]	kinact (p110α (PI3Kα)) [s⁻¹]	pIC50 [1, 4]
1.05e+06	7.94	0.0121	–	C[C@H]1COCCN1c1nc(-c2cnc(N)nc2C(F)F)nc(N2CCN(C(=O)COC[C@H]3CN(C(=O)/C(C#N)=C\C4CC4)CCO3)CC2)n1 [Compound 41, (Z)-2-((R)-2-((2-(4-(4-(2-amino-4-(difluoromethyl)pyrimidin-5-yl)-6-((S)-3-methylmorpholino)-1,3,5-triazin-2-yl)piperazin-1-yl)-2-oxoethoxy)methyl)morpholine-4-carbonyl)-3-cyclopropylacrylonitrile]	–	–	–
75400	8.15	0.000537	–	C=CC(=O)N1CCO[C@H](COCC(=O)N2CCN(c3nc(-c4cnc(N)nc4C(F)F)nc(N4CCOC[C@@H]4C)n3)CC2)C1 [Compound 42, 1-((S)-2-((2-(4-(4-(2-amino-4-(difluoromethyl)pyrimidin-5-yl)-6-((S)-3-methylmorpholino)-1,3,5-triazin-2-yl)piperazin-1-yl)-2-oxoethoxy)methyl)morpholino)prop-2-en-1-one]	–	–	–
16300	7.92	0.000196	7.54	C=CC(=O)N1CCC[C@@H](C(=O)NCCN2CCN(c3nc(-c4cnc(N)nc4C(F)F)nc(N4CCOCC4)n3)CC2)C1 [Compound 19, (R)-1-acryloyl-N-(2-(4-(4-(2-amino-4-(difluoromethyl)pyrimidin-5-yl)-6-morpholino-1,3,5-triazin-2-yl)piperazin-1-yl)ethyl)piperidine-3-carboxamide]	–	–	–
–	8.72	–	7.65	Nc1ncc(-c2nc(N3CCOCC3)nc(N3CCN(C(=O)COC[C@H]4CCCN(C(=O)/C=C/CF)C4)CC3)n2)c(C(F)F)n1 [Compound 14, (S,E)-1-(3-((2-(4-(4-(2-amino-4-(difluoromethyl)pyrimidin-5-yl)-6-morpholino-1,3,5-triazin-2-yl)piperazin-1-yl)-2-oxoethoxy)methyl)piperidin-1-yl)-4-fluorobut-2-en-1-one]	–	–	–
1.04e+06	7.86	0.0143	–	C[C@H]1COCCN1c1nc(-c2cnc(N)nc2C(F)F)nc(N2CCN(C(=O)COC[C@@H]3CN(C(=O)/C(C#N)=C\C4CC4)CCO3)CC2)n1 [Compound 43, (Z)-2-((S)-2-((2-(4-(4-(2-amino-4-(difluoromethyl)pyrimidin-5-yl)-6-((S)-3-methylmorpholino)-1,3,5-triazin-2-yl)piperazin-1-yl)-2-oxoethoxy)methyl)morpholine-4-carbonyl)-3-cyclopropylacrylonitrile]	–	–	–
–	–	–	7.32	C=CC(=O)N1CC(C(=O)NCCN2CCN(c3nc(-c4cnc(N)nc4C(F)F)nc(N4CCOCC4)n3)CC2)C1 [Compound 36, 1-acryloyl-N-(2-(4-(4-(2-amino-4-(difluoromethyl)pyrimidin-5-yl)-6-morpholino-1,3,5-triazin-2-yl)piperazin-1-yl)ethyl)azetidine-3-carboxamide]	–	–	–
224000	8.14	0.00163	–	C=CC(=O)N1CCO[C@@H](COCC(=O)N2CCN(c3nc(-c4cnc(N)nc4C(F)F)nc(N4CCOC[C@@H]4C)n3)CC2)C1 [Compound 40, 1-((R)-2-((2-(4-(4-(2-amino-4-(difluoromethyl)pyrimidin-5-yl)-6-((S)-3-methylmorpholino)-1,3,5-triazin-2-yl)piperazin-1-yl)-2-oxoethoxy)methyl)morpholino)prop-2-en-1-one]	–	–	–
–	–	–	6.63	C/C=C/C(=O)N1CC(C(=O)N(C)CC(=O)N2CCN(c3nc(-c4cnc(N)nc4C(F)F)nc(N4CCOCC4)n3)CC2)C1 [Compound 34, (E)-N-(2-(4-(4-(2-amino-4-(difluoromethyl)pyrimidin-5-yl)-6-morpholino-1,3,5-triazin-2-yl)piperazin-1-yl)-2-oxoethyl)-1-(but-2-enoyl)-N-methylazetidine-3-carboxamide]	–	–	–
